Measured values as given in patent publication US20240024273A1, “TOPICAL ADMINISTRATION OF 2-(DIETHYLAMINO)ETHYL 2-(4-ISOBUTYLPHENYL)PROPRIONATE FOR TREATMENT OF DISEASES” (TECHFIELDS PHARMA CO., LTD., priority 2020, published 2024).

Assays:
[1] = test system: osteoarthritis of the knee; test: Second Phase 2 study: WOMAC overall score; type: in vivo, human
Description: (§1) This is a Phase 2, multicenter, randomized, double blind (within dose), Ibuprofen-placebo controlled, parallel group, dose range finding study to evaluate the efficacy, safety, and PK of 2-(diethylamino)ethyl 2-(4-isobutylphenyl)propionate spray in adult subjects with clinically symptomatic OA of the knee. For subjects with bilateral knee pain, both knees will be treated, but the most symptomatic knee (ie, the most painful knee as measured by the Western Ontario and McMaster University Osteoarthritis Index [WOMAC® 3.1] pain subscale score at Screening) will be designated as the target knee for efficacy analyses. For subjects with unilateral knee pain, only the symptomatic (target) knee will be treated.
(§2) The VAS version of the WOMAC will be used for the Primary and Secondary Efficacy Endpoints. Efficacy endpoints will be assessed at Screening and Baseline (Day 1) and at the Week 2, Week 4, Week 8, and Week 12/EOS visits.
(§3) 4.9.2. Secondary Efficacy Endpoints: • 1. Change from Baseline in the WOMAC (VAS) pain subscale score for the target knee at 2, 8, and 12 weeks of treatment; • 2. Change from Baseline in the WOMAC (VAS) stiffness subscale scores for the target knee and WOMAC (VAS) functional ability subscale scores at 2, 4, 8, and 12 weeks of treatment; • 3. Change from Baseline in the overall WOMAC (VAS) score at 2, 4, 8, and 12 weeks of treatment; • 4. Subject's global assessment of disease status of the target knee at 2, 4, 8, and 12 weeks of treatment; • 5. Subject's global assessment of response to therapy of the target knee at 2, 4, 8, and 12 weeks of treatment; • 6. Amount of rescue medication (acetaminophen) consumed per day for target knee pain.
The Secondary Efficacy Endpoints, change from Baseline in the WOMAC subscale scores for pain, stiffness, and functional ability, and overall WOMAC score at 2, 4, 8, and 12 weeks of treatment, will be analyzed using the same methods as for the Primary Efficacy Endpoint.

[2] = test system: osteoarthritis of the knee; test: Second Phase 2 study: WOMAC (VAS) pain subscale score; type: in vivo, human
Description: as §1, §2
The Primary Efficacy Endpoint is the change from Baseline in the WOMAC (VAS) pain subscale score for the target knee at […] of treatment.
as §3
The Primary Efficacy Endpoint is change from Baseline in the WOMAC (VAS) pain subscale score for the target knee at 4 weeks of treatment, and will be analyzed using an analysis of covariance (ANCOVA). Treatment will be included as a fixed class effect and WOMAC Baseline pain subscale score as covariates. The primary comparisons of interest will be the difference between active Group A (4.375 mg 2-(diethylamino)ethyl 2-(4-isobutylphenyl)propionate/knee) and combined placebo, active Group B (8.75 mg 2-(diethylamino)ethyl 2-(4-isobutylphenyl)propionate/knee) and combined placebo, and active Group C (17.5 mg 2-(diethylamino)ethyl 2-(4-isobutylphenyl)propionate/knee) and combined placebo.

[3] = 17.5 mg/knee BID, Week 12, first 130 subjects
[4] = 4.375 mg/knee BID (n = 23), first 130 subjects
[5] = 8.75 mg/knee BID (n = 24), first 130 subjects
[6] = Week 12, 4.375 mg/knee BID (n = 23), first 130 subjects
[7] = Week 12, 8.75 mg/knee BID (n = 24), first 130 subjects
[8] = Week 12, 17.5 mg/knee BID (n = 19), first 130 subjects
[9] = all subjects, 4.375 mg/knee BID, n = 49, Week 12
[10] = all subjects, 8.75 mg/knee BID, n = 54, Week 12
[11] = all subjects, 17.5 mg/knee BID, n = 52, Week 12

CCN(CC)CCOC(=O)C(C)c1ccc(CC(C)C)cc1 (stereo not shown) [2-(diethylamino)ethyl 2-(4-isobutylphenyl)propionate]
WOMAC overall, difference from oral ibuprofen [1, 3]: −15.2 mm
WOMAC overall, difference from placebo [1, 3]: −18.2 mm
efficacy vs oral ibuprofen (3×400 mg/day) ([1]; 17.5 mg/knee BID, all subjects): higher efficacy than oral ibuprofen (3×400 mg/day), but not significantly
efficacy vs placebo ([1]; 17.5 mg/knee BID, all subjects): higher efficacy than placebo significantly
WOMAC Overall Scores, Baseline (LS Mean) [1, 4]: 59.3 mm
WOMAC Overall Scores, Baseline (LS Mean) [1, 5]: 60.7 mm
WOMAC Overall Scores, Baseline (LS Mean) ([1]; 17.5 mg/knee BID (n = 19), first 130 subjects): 63.4 mm
WOMAC Overall Scores, % of improvement from Oral Ibuprofen [1, 6]: −10.1%
WOMAC Overall Scores, % of improvement from baseline [1, 6]: −43.2%
WOMAC Overall Scores, % of improvement from placebo [1, 6]: −13.0%
WOMAC Overall Scores, Changes from Baseline (LS Mean) [1, 6]: −25.6 mm
WOMAC Overall Scores, Different from oral ibuprofen (LS Mean) [1, 6]: −4.1 mm
WOMAC Overall Scores, Different from placebo (LS Mean) [1, 6]: −7.1 mm
WOMAC Overall Scores, Week 12 (LS Mean) [1, 6]: 33.8 mm
WOMAC Overall Scores, % of improvement from Oral Ibuprofen [1, 7]: −11.8%
WOMAC Overall Scores, % of improvement from baseline [1, 7]: −45.1%
WOMAC Overall Scores, % of improvement from placebo [1, 7]: −14.9%
WOMAC Overall Scores, Changes from Baseline (LS Mean) [1, 7]: −27.4 mm
WOMAC Overall Scores, Different from oral ibuprofen (LS Mean) [1, 7]: −5.9 mm
WOMAC Overall Scores, Different from placebo (LS Mean) [1, 7]: −9.0 mm
WOMAC Overall Scores, Week 12 (LS Mean) [1, 7]: 33.3 mm
WOMAC Overall Scores, % of improvement from Oral Ibuprofen [1, 8]: −24.6%
WOMAC Overall Scores, % of improvement from baseline [1, 8]: −57.7%
WOMAC Overall Scores, % of improvement from placebo [1, 8]: −27.5%
WOMAC Overall Scores, Changes from Baseline (LS Mean) [1, 8]: −36.6 mm
WOMAC Overall Scores, Different from oral ibuprofen (LS Mean) [1, 8]: −15.2 mm
WOMAC Overall Scores, Different from placebo (LS Mean) [1, 8]: −18.2 mm
WOMAC Overall Scores, Week 12 (LS Mean) [1, 8]: 26.8 mm
WOMAC Overall Scores, % of improvement from Oral Ibuprofen [1, 9]: −1.5%
WOMAC Overall Scores, % of improvement from baseline [1, 9]: −42.8%
WOMAC Overall Scores, % of improvement from placebo [1, 9]: −6.6%
WOMAC Overall Scores, Changes from Baseline (LS Mean) [1, 9]: −25.4 mm
WOMAC Overall Scores, Week 12 (LS Mean) [1, 9]: 34.0 mm
WOMAC Overall Scores, % of improvement from Oral Ibuprofen [1, 10]: −4.6%
WOMAC Overall Scores, % of improvement from baseline [1, 10]: −45.9%
WOMAC Overall Scores, % of improvement from placebo [1, 10]: −9.7%
WOMAC Overall Scores, Changes from Baseline (LS Mean) [1, 10]: −27.7 mm
WOMAC Overall Scores, Different from oral ibuprofen (LS Mean) [1, 10]: −2.8 mm
WOMAC Overall Scores, Different from placebo (LS Mean) [1, 10]: −6.4 mm
WOMAC Overall Scores, Week 12 (LS Mean) [1, 10]: 32.7 mm
WOMAC Overall Scores, % of improvement from Oral Ibuprofen [1, 11]: −10.6%
WOMAC Overall Scores, % of improvement from baseline [1, 11]: −51.9%
WOMAC Overall Scores, % of improvement from placebo [1, 11]: −15.7%
WOMAC Overall Scores, Changes from Baseline (LS Mean) [1, 11]: −30.9 mm
WOMAC Overall Scores, Different from oral ibuprofen (LS Mean) [1, 11]: −6.0 mm
WOMAC Overall Scores, Different from placebo (LS Mean) [1, 11]: −9.6 mm
WOMAC Overall Scores, Week 12 (LS Mean) [1, 11]: 28.6 mm
average scores in all six subscales ([1]; high dose group, Week 12): below 30 mm
WOMAC pain, difference from oral ibuprofen (3×400 mg/day) [2, 3]: −14.5 mm
WOMAC pain, difference from placebo [2, 3]: −15.0 mm
WOMAC Pain Subscale Score, Day 1, Avg. ([2]; Avg. of all patients, blinded, Middle Dose (4 spray/knee, 17.5 mg/knee) Cohort, Day 1): 61.0
WOMAC Pain Subscale Score, Follow-up, Avg. ([2]; Avg. of all patients, blinded, Middle Dose (4 spray/knee, 17.5 mg/knee) Cohort, Follow-up): 38.9
WOMAC Pain Subscale Score, Week 2, Avg. ([2]; Avg. of all patients, blinded, Middle Dose (4 spray/knee, 17.5 mg/knee) Cohort, Week 2): 46.0
WOMAC Pain Subscale Score, Week 4, Avg. ([2]; Avg. of all patients, blinded, Middle Dose (4 spray/knee, 17.5 mg/knee) Cohort, Week 4): 40.5
WOMAC Pain Subscale Score, Week 8, Avg. ([2]; Avg. of all patients, blinded, Middle Dose (4 spray/knee, 17.5 mg/knee) Cohort, Week 8): 35.9
WOMAC Pain Subscale Score, Week 12, Avg. ([2]; Avg. of all patients, blinded, Middle Dose (4 spray/knee, 17.5 mg/knee) Cohort, Week 12): 34.5
WOMAC Pain Subscale Scores, Baseline (LS Mean) [2, 4]: 60.0 mm
WOMAC Pain Subscale Scores, Baseline (LS Mean) [2, 5]: 61.0 mm
